Laboratory results taken from US20180284095A1, “BIOMARKERS ASSOCIATED WITH LSD1 INHIBITORS AND USES THEREOF” (Oryzon Genomics, S.A., priority 2015, published 2018).

How the values were obtained:
[1] = system: TUBB2C; experiment: Microarray gene expression, brain of Hsd:ICR (CD1) mice, MTD study (Example 6), housekeeping gene; type: in vivo, mouse; conditions: brain day 5, male CD1 mice pool
Protocol: (§1) Total RNA was extracted from samples using the RNeasy extraction kit (Qiagen). The quality and concentration of the RNA was analyzed using the Agilent 2100 bioanalyzer and NanoDrop™ ND-1000 (Thermo Scientific). Samples with RNA integrity number (RIN)<6.0 were discarded. Total RNA (0.5 μg) amplification and labelling with Cy3 or Cy5 was carried out using the Eberwein mRNA amplification procedure (Van Gelder et al, Proc Natl Acad Sci USA 1990, 87:1663-1667) employing the MessageAmp™ aRNA amplification kit from Ambion (Applied Biosystems) following the manufacturer's instructions with minor modifications. As hybridization controls, plant mRNAs were transcribed from a plasmid containing the Zea mays Xet (xyloglucan endo-transglycosylase) cDNA and from a plasmid containing the Zea mays Zmmyb42 cDNA, independently prepared Cy3 and Cy5 labelled aRNA from these two RNAs using the Eberwein mRNA amplification procedure (as disclosed in Cerdà et al, Gen Comp Endocrinol 2008, 156:470-481).
(§2) The Cy3- and Cy5-labelled cRNAs and spikes were combined and hybridized to the microarray described in Example 2.6 for 17 h at 60° C. using Agilent's gaskets G2534-60002, G2534A hybridization chambers and DNA Hybridization Oven G2545A, according to the manufacturer's instructions. More specifically, equal amounts of Cy3 and Cy5 labeled Xet aRNA as well as equal amounts of Cy3 and Cy5 labeled Zmmyb42 aRNA were spiked into each mixture hybridized to the array. Arrays were washed and raw data were obtained using Agilent's DNA Microarray Scanner G2505B and Feature Extraction software (v10.1). The raw fluorescence intensity data were processed using applicant's proprietary software, and consists in the following operations:
(§3) Data normalization was carried out by an improved version of the nonlinear Q-splines normalization method (Workman et al., Genome Biol 2002, 3(9):research0048.1-0048.16). Normalization results were presented graphically as MA plots, as first described by Dudoit et al (Dudoit et al, Statistica Sinica, 2002, 12:111-139). Each point corresponds to a probe of the DNA array. M values (vertical axis) are the log-differential expression ratios. A values (horizontal axis) are the log-intensities of the spots. M and A are calculated from the Cy5 and Cy3 intensity values as of each spot. The DNA Array data is normalized using an improved version of non-linear Q-Splines normalization described by Workman et al., Genome Biol 2002, 3(9):research0048.1-0048.16. This process is useful to correct the deviation of the M values from the statistical assumption that most of the spots have M=0 in MA plots. […]. The data used to calculate the normalization fitting curve is the totality of the raw measurement dataset, excluding the signals for the probes for the spiked-in plant RNA controls and negative controls. In order to be able to normalize properly the data among all the experiments, the probe-set must include an important group of genes that should have no change (M=0) in the experiment. The normalization function is then applied to all the data, including controls.
(§4) Normalized and log-transformed data were used to calculate log 2 (sample/control) and Fold Change (FC) values. No background subtraction was applied to the signal intensity values during data processing, permitting robust selection of differentially expressed genes with low expression levels at the cost of potential sub-estimation of change when intensity levels are close to the array background level.
(§5) Male Hsd:ICR (CD1®) mice were maintained in air- and temperature-controlled cages with regular supply of water and food. A maximum of 3 mice were raised per cage. Three mice were assigned to each group. Before the first administration, each mouse was labeled and weighed. Test compounds were administered orally using 1 ml syringes using animal feeding needles proper for mice at 10 ml/kg as follows. […]

[2] = system: TUBB3; experiment: as above; type: in vivo, mouse; conditions: brain day 5, male CD1 mice pool
Protocol: as §1, §2, §3, §4, §5

[3] = system: C57BL/6 mice; experiment: Experimental Autoimmune Encephalomyelitis (EAE) model, MOG35-55; type: in vivo, mouse
Protocol: In particular, the murine EAE model as described herein, using MOG35-55 and C57BL/6 mice strain, is considered a validated preclinical model of the chronic progressive form of MS.
To induce chronic EAE by active immunization, C57BL/6 mice were immunized s.c. with 100 μg of myelin oligodendrocyte glycoprotein MOG35-55 emulsified in complete Freund's adjuvant (CFA) containing 4 mg/ml Mycobacterium tuberculosis H37 RA. Mice also received i.p. injections of 200 ng of pertussis toxin on days 0 and 2.
Mice were scored daily for signs of EAE according to the following clinical scoring system: 0, no clinical signs; 0.5, partial loss of tail tonicity; 1, complete loss of tail tonicity; 2, flaccid tail and abnormal gait; 3, hind leg paralysis; 4, hind leg paralysis with hind body paresis; 5, hind and fore leg paralysis; and 6, death.

[4] = Oral availability and blood-brain barrier crossing (statement)
[5] = 3 mg/kg oral x5 days vs vehicle
[6] = 10 mg/kg oral x5 days vs vehicle
[7] = 30 mg/kg oral x5 days vs vehicle
[8] = 100 mg/kg oral x5 days vs vehicle

(+) 5-((((trans)-2-(4-(benzyloxy)phenyl)cyclopropyl)amino)methyl)-1,3,4-oxadiazol-2-amine [Compound 2]
Hybridization signal sample_Cy5 TUBB2C ([1]; 3 mg/kg oral x5 days): 5746.61 | log2 (sample/control) TUBB2C [1, 5]: 0.1908 | Hybridization signal sample_Cy5 TUBB2C ([1]; 10 mg/kg oral x5 days): 5742.06 | log2 (sample/control) TUBB2C [1, 6]: 0.1179 | Hybridization signal sample_Cy5 TUBB2C ([1]; 30 mg/kg oral x5 days): 6326.04 | log2 (sample/control) TUBB2C [1, 7]: 0.1798 | Hybridization signal sample_Cy5 TUBB2C ([1]; 100 mg/kg oral x5 days): 3724.28 | log2 (sample/control) TUBB2C [1, 8]: −0.3983 | Hybridization signal sample_Cy5 TUBB3 ([2]; 3 mg/kg oral x5 days): 3650.69 | log2 (sample/control) TUBB3 [2, 5]: 0.09458 | Hybridization signal sample_Cy5 TUBB3 ([2]; 10 mg/kg oral x5 days): 3706.64 | log2 (sample/control) TUBB3 [2, 6]: −0.1239 | Hybridization signal sample_Cy5 TUBB3 ([2]; 30 mg/kg oral x5 days): 4409.6 | log2 (sample/control) TUBB3 [2, 7]: −0.002033 | Hybridization signal sample_Cy5 TUBB3 ([2]; 100 mg/kg oral x5 days): 2253.74 | log2 (sample/control) TUBB3 [2, 8]: −0.4338

(−) 5-((((trans)-2-(4-(benzyloxy)phenyl)cyclopropyl)amino)methyl)-1,3,4-oxadiazol-2-amine [Compound 1]
Hybridization signal sample_Cy5 TUBB2C ([1]; 3 mg/kg oral x5 days): 5008.03 | log2 (sample/control) TUBB2C [1, 5]: −0.03216 | Hybridization signal sample_Cy5 TUBB2C ([1]; 10 mg/kg oral x5 days): 3965.09 | log2 (sample/control) TUBB2C [1, 6]: −0.309 | Hybridization signal sample_Cy5 TUBB2C ([1]; 30 mg/kg oral x5 days): 5060.07 | log2 (sample/control) TUBB2C [1, 7]: 0.03544 | Hybridization signal sample_Cy5 TUBB2C ([1]; 100 mg/kg oral x5 days): 5579.26 | log2 (sample/control) TUBB2C [1, 8]: 0.0424 | Hybridization signal sample_Cy5 TUBB3 ([2]; 3 mg/kg oral x5 days): 3553.16 | log2 (sample/control) TUBB3 [2, 5]: −0.1852 | Hybridization signal sample_Cy5 TUBB3 ([2]; 10 mg/kg oral x5 days): 2424.61 | log2 (sample/control) TUBB3 [2, 6]: −0.5964 | Hybridization signal sample_Cy5 TUBB3 ([2]; 30 mg/kg oral x5 days): 2911.46 | log2 (sample/control) TUBB3 [2, 7]: −0.1102 | Hybridization signal sample_Cy5 TUBB3 ([2]; 100 mg/kg oral x5 days): 3667.46 | log2 (sample/control) TUBB3 [2, 8]: −0.02579 | development of EAE, disease incidence and severity measured by daily clinical score ([3]; 1 or 3 mg/kg oral once a day, days 12-16 and 19-23 postimmunization): greatly inhibited the development of EAE | mice almost completely recovered ([3]; 40 days after disease onset): 30% | duration of protective effect ([3]; after cessation of the treatment): maintained for a long-period of time after cessation of the treatment | mice displaying mild symptoms ([3]; group treated with 1 or 3 mg/kg oral): 40-70% | blood-brain barrier crossing [4]: cross the blood-brain barrier | oral availability [4]: orally available
